In PubChem BioAssay AID248 (DTP/NCI, 2004):
Toxic doses and inconclusive results are not listed.

System: L1210 leukemia ip in BDF1 mice, survival T/C
Assay: NCI In Vivo Anticancer Drug Screen. Data for tumor model L1210 Leukemia (intraperitoneal) in B6D2F1 (BDF1) mice
Conditions: endpoint: mean survival time, higher = longer survival
In short: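 Tumor was transplanted into mice, which were then dosed with test compound or vehicle alone. Survival was recorded for each group, and the treated figure was expressed relative to the control figure.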

[1] = dose: 100.0 mg/kg/injection, schedule: Q01DX009 (ip), vehicle: saline with Tween-80
[2] = dose: 200.0 mg/kg/injection, schedule: Q01DX009 (ip), vehicle: saline with Tween-80
[3] = dose: 400.0 mg/kg/injection, schedule: Q01DX009 (ip), vehicle: saline with Tween-80
[4] = dose: 50.0 mg/kg/injection, schedule: Q01DX001 (ip), vehicle: carboxymethylcellulose (CMC)
[5] = dose: 100.0 mg/kg/injection, schedule: Q01DX001 (ip), vehicle: carboxymethylcellulose (CMC)
[6] = dose: 200.0 mg/kg/injection, schedule: Q01DX001 (ip), vehicle: carboxymethylcellulose (CMC)
[7] = dose: 400.0 mg/kg/injection, schedule: Q01DX001 (ip), vehicle: carboxymethylcellulose (CMC)
[8] = dose: 50.0 mg/kg/injection, schedule: Q01DX001 (ip), vehicle: saline
[9] = dose: 100.0 mg/kg/injection, schedule: Q01DX001 (ip), vehicle: saline
[10] = dose: 200.0 mg/kg/injection, schedule: Q01DX001 (ip), vehicle: saline
[11] = dose: 400.0 mg/kg/injection, schedule: Q01DX001 (ip), vehicle: saline
[12] = dose: 100.0 mg/kg/injection, schedule: Q01DX009 (ip), vehicle: Klucel (hydroxypropylcellulose) (HPC)
[13] = dose: 200.0 mg/kg/injection, schedule: Q01DX009 (ip), vehicle: Klucel (hydroxypropylcellulose) (HPC)
[14] = dose: 400.0 mg/kg/injection, schedule: Q01DX009 (ip), vehicle: Klucel (hydroxypropylcellulose) (HPC)
[15] = dose: 100.0 mg/kg/injection, schedule: Q04DX002 (ip), vehicle: Klucel (hydroxypropylcellulose) (HPC)
[16] = dose: 200.0 mg/kg/injection, schedule: Q04DX002 (ip), vehicle: Klucel (hydroxypropylcellulose) (HPC)
[17] = dose: 400.0 mg/kg/injection, schedule: Q04DX002 (ip), vehicle: Klucel (hydroxypropylcellulose) (HPC)
[18] = dose: 100.0 mg/kg/injection, schedule: Q04DX003 (ip), vehicle: saline
[19] = dose: 200.0 mg/kg/injection, schedule: Q04DX003 (ip), vehicle: saline
[20] = dose: 100.0 mg/kg/injection, schedule: Q04DX003 (ip), vehicle: Klucel (hydroxypropylcellulose) (HPC)
[21] = dose: 200.0 mg/kg/injection, schedule: Q04DX003 (ip), vehicle: Klucel (hydroxypropylcellulose) (HPC)
[22] = dose: 400.0 mg/kg/injection, schedule: Q04DX003 (ip), vehicle: Klucel (hydroxypropylcellulose) (HPC)
[23] = dose: 50.0 mg/kg/injection, schedule: Q01DX009 (ip), vehicle: saline

O=C(CC(=O)Oc1ccc(Cl)cc1Cl)Oc1ccc(Cl)cc1Cl
T/C [1]: 93 % of control
T/C [2]: 90 % of control
T/C [3]: 95 % of control

CCOC(=O)c1cc([N+](=O)[O-])c([N+](=O)[O-])cc1Cl
T/C (dose: 12.5 mg/kg/injection, schedule: Q04DX003 (ip), vehicle: Klucel (hydroxypropylcellulose) (HPC)): 102 % of control
T/C (dose: 25.0 mg/kg/injection, schedule: Q04DX003 (ip), vehicle: Klucel (hydroxypropylcellulose) (HPC)): 103 % of control
T/C (dose: 50.0 mg/kg/injection, schedule: Q04DX003 (ip), vehicle: Klucel (hydroxypropylcellulose) (HPC)): 98 % of control

O=c1[nH]c(=S)[nH]c2c1CP(=S)(c1ccccc1)CC2 (configuration not stated)
T/C (dose: 100.0 mg/kg/injection, schedule: Q04DX002 (ip), vehicle: saline with Tween-80): 106 % of control
T/C (dose: 200.0 mg/kg/injection, schedule: Q04DX002 (ip), vehicle: saline with Tween-80): 100 % of control
T/C (dose: 400.0 mg/kg/injection, schedule: Q04DX002 (ip), vehicle: saline with Tween-80): 100 % of control

CCn1c2ccccc2c2cc(NC(=O)N(CCCl)N=O)ccc21
T/C (dose: 177.0 mg/kg/injection, schedule: Q01DX009 (ip), vehicle: carboxymethylcellulose (CMC)): 121 % of control
T/C (dose: 266.0 mg/kg/injection, schedule: Q01DX009 (ip), vehicle: carboxymethylcellulose (CMC)): 188 % of control

CCOc1ccccc1/C=N\NC(=S)Nc1ccc2cn[nH]c2c1
T/C [4]: 96 % of control
T/C [5]: 100 % of control
T/C [6]: 102 % of control
T/C [7]: 94 % of control

N#Cc1ccc(CCc2ccccc2)cc1
T/C [8]: 102 % of control
T/C [9]: 102 % of control
T/C [10]: 101 % of control
T/C [11]: 102 % of control

COc1ccc(O)c(/C=N\N=C\c2cc(OC)ccc2O)c1
T/C [12]: 106 % of control
T/C [13]: 101 % of control
T/C [14]: 95 % of control

CC(C)C(=O)Oc1ccc(-c2ccccc2)cc1
T/C [15]: 93 % of control
T/C [16]: 100 % of control
T/C [17]: 100 % of control

NC(=O)NOCc1ccc([N+](=O)[O-])cc1
T/C [18]: 98 % of control
T/C [19]: 101 % of control
T/C (dose: 400.0 mg/kg/injection, schedule: Q04DX003 (ip), vehicle: saline): 115 % of control

COc1ccc(NC(=O)/C=C/c2ccc([N+](=O)[O-])cc2)cc1S(=O)(=O)F
T/C [20]: 98 % of control
T/C [21]: 107 % of control
T/C [22]: 98 % of control

Cc1cc2oc(=O)cc(N3CCOCC3)c2c(=O)o1
T/C [1]: 117 % of control
T/C [2]: 114 % of control

N#CC1CN(c2ccccc2)CC1=O (configuration not stated)
T/C [12]: 97 % of control
T/C [13]: 96 % of control

CC(O)CCc1ccccc1 (configuration not stated)
T/C [1]: 100 % of control
T/C [2]: 89 % of control
T/C [3]: 88 % of control

Cc1cc2c(cc1C)N(C(=O)CCl)CCN2C(=O)CCl
T/C (dose: 5.0 mg/kg/injection, schedule: Q01DX Z (ip), vehicle: carboxymethylcellulose (CMC)): 97 % of control
T/C (dose: 10.0 mg/kg/injection, schedule: Q01DX Z (ip), vehicle: carboxymethylcellulose (CMC)): 105 % of control
T/C (dose: 20.0 mg/kg/injection, schedule: Q01DX Z (ip), vehicle: carboxymethylcellulose (CMC)): 100 % of control
T/C [9]: 104 % of control
T/C [10]: 98 % of control
T/C [11]: 98 % of control

O=C(O)c1ccncc1C(=O)O
T/C [4]: 87 % of control
T/C [5]: 90 % of control
T/C [6]: 87 % of control

CCCCCCCCCCCCCCCCCCNC(=O)NCCc1ccccc1
T/C [15]: 105 % of control
T/C [16]: 99 % of control
T/C [17]: 92 % of control

O=C(CC(c1ccccc1)(c1ccccc1)c1ccccc1)c1ccccc1
T/C [4]: 98 % of control
T/C [5]: 93 % of control
T/C [6]: 90 % of control
T/C [7]: 93 % of control

COC(c1ccccc1)c1ccccc1
T/C [8]: 109 % of control
T/C [9]: 94 % of control
T/C [10]: 100 % of control
T/C [11]: 94 % of control

CCOC(=O)C1CN(C2CCCCC2)CCC1=O (configuration not stated)
T/C (dose: 18.75 mg/kg/injection, schedule: Q01DX009 (ip), vehicle: saline): 93 % of control
T/C (dose: 37.5 mg/kg/injection, schedule: Q01DX009 (ip), vehicle: saline): 92 % of control
T/C (dose: 37.5 mg/kg/injection, schedule: Q04DX003 (ip), vehicle: saline): 98 % of control
T/C (dose: 75.0 mg/kg/injection, schedule: Q01DX001 (ip), vehicle: saline): 102 % of control
T/C (dose: 75.0 mg/kg/injection, schedule: Q01DX009 (ip), vehicle: saline): 93 % of control
T/C (dose: 75.0 mg/kg/injection, schedule: Q04DX003 (ip), vehicle: saline): 100 % of control
T/C (dose: 150.0 mg/kg/injection, schedule: Q01DX001 (ip), vehicle: saline): 95 % of control
T/C (dose: 150.0 mg/kg/injection, schedule: Q04DX003 (ip), vehicle: saline): 94 % of control

CNC(=O)C1OC(n2cnc3c(N)ncnc32)C2OC(C)(C)OC12 (configuration not stated)
T/C (dose: 100.0 mg/kg/injection, schedule: Q01DX005 (ip), vehicle: saline): 97 % of control
T/C (dose: 200.0 mg/kg/injection, schedule: Q01DX005 (ip), vehicle: saline): 101 % of control

CCCCOC(=O)C(O)C(C)(Cl)c1ccccc1 (configuration not stated)
T/C [15]: 106 % of control
T/C [16]: 103 % of control
T/C [17]: 106 % of control

Cc1ccc(N=C=O)cc1[N+](=O)[O-]
T/C (dose: 100.0 mg/kg/injection, schedule: Q01DX009 (ip), vehicle: gum acacia): 100 % of control
T/C (dose: 100.0 mg/kg/injection, schedule: Q04DX003 (ip), vehicle: gum acacia): 98 % of control
T/C (dose: 200.0 mg/kg/injection, schedule: Q01DX009 (ip), vehicle: gum acacia): 89 % of control
T/C (dose: 200.0 mg/kg/injection, schedule: Q04DX003 (ip), vehicle: gum acacia): 101 % of control
T/C (dose: 400.0 mg/kg/injection, schedule: Q01DX009 (ip), vehicle: gum acacia): 94 % of control
T/C (dose: 400.0 mg/kg/injection, schedule: Q04DX003 (ip), vehicle: gum acacia): 90 % of control

CC1(C)OC2OC(/C=C\C=O)C3OC(C)(C)OC3C2O1 (configuration not stated)
T/C (dose: 100.0 mg/kg/injection, schedule: Q04DX003 (ip), vehicle: acetone): 100 % of control
T/C (dose: 200.0 mg/kg/injection, schedule: Q04DX003 (ip), vehicle: acetone): 104 % of control

Cc1ccc(O)c(S(=O)(=O)F)c1
T/C [20]: 104 % of control
T/C [21]: 102 % of control
T/C [22]: 102 % of control

NCc1ccc(F)cc1
T/C [23]: 102 % of control
T/C (dose: 100.0 mg/kg/injection, schedule: Q01DX009 (ip), vehicle: saline): 95 % of control
T/C [18]: 100 % of control
T/C (dose: 200.0 mg/kg/injection, schedule: Q01DX009 (ip), vehicle: saline): 95 % of control
T/C [19]: 92 % of control

CCCB(O)O
T/C (dose: 100.0 mg/kg/injection, schedule: Q01DX001 (ip), vehicle: other): 100 % of control
T/C (dose: 100.0 mg/kg/injection, schedule: Q04DX003 (ip), vehicle: other): 106 % of control
T/C (dose: 200.0 mg/kg/injection, schedule: Q01DX001 (ip), vehicle: other): 101 % of control
T/C (dose: 200.0 mg/kg/injection, schedule: Q04DX003 (ip), vehicle: other): 105 % of control
T/C (dose: 400.0 mg/kg/injection, schedule: Q01DX001 (ip), vehicle: other): 101 % of control
T/C (dose: 400.0 mg/kg/injection, schedule: Q04DX003 (ip), vehicle: other): 106 % of control

Cc1ccc(C(=O)C[S+](C)C)c(C)c1
T/C (dose: 25.0 mg/kg/injection, schedule: Q01DX009 (ip), vehicle: saline): 98 % of control
T/C [23]: 95 % of control
T/C (dose: 100.0 mg/kg/injection, schedule: Q04DX003 (ip), vehicle: saline with Tween-80): 102 % of control

CN(C)C=NC1c2ccccc2CCc2ccccc21
T/C [12]: 98 % of control
T/C [20]: 104 % of control
T/C [13]: 97 % of control
T/C [21]: 91 % of control
T/C [14]: 100 % of control
T/C [22]: 94 % of control
